The values that follow are results of earlier work, collected in PMC12729893, “Untargeted UHPLC-HRMS Metabolomic Profiling of Cornus mas L. Fruits: Impact of Conventional and Emerging Extraction Methods on Phenolic Composition and Bioactivity” (Antioxidants, 2025).

Each structure is given as a SMILES string.

In the case of `O=c1oc2c(O)c(O)cc3c(=O)oc4c(O)c(O)cc1c4c23` [ellagic acid], the “α-glucosidase inhibition according to computational analysis” value in the data set with α-glucosidase is “most effective inhibitors”. For the same compound, the “α-amylase inhibition according to computational analysis” value in the data set with α-amylase is on record as “most effective inhibitors”.

Consider `C[C@@H]1O[C@@H](OC[C@H]2O[C@@H](Oc3cc4c(O)cc(O)cc4[o+]c3-c3ccc(O)cc3)[C@H](O)[C@@H](O)[C@H]2O)[C@H](O)[C@H](O)[C@H]1O` [pelargonidin 3-robinobioside], for which the “α-glucosidase inhibition according to computational analysis” value in the data set on α-glucosidase is recorded as “most potent inhibitor”.
